Laboratory results reported in US7332623B2 (Kaohsiung Medical University, priority 2003, dated 2008).
“Also recorded” adds a separate entry of the source. Like-named read-outs stand apart in the source and are kept apart here. Marks after values point to notes of the source that are not given here.

Assays:
[1] = test system: NCI (NCI-H661): human lung large cell carcinoma; experiment: In vitro anticancer assay (cytotoxicity), solid tumor cells
Hep2,2,15 = conditions: Hep2,2,15, Table 1; cited from earlier work
Breast cancer cell MCF-7 = experiment: Preliminary cytotoxicity test; type: cell-based, human
[2] = test system: Non-small cell Lung cancer cell NCI-H460; experiment: Preliminary cytotoxicity test; type: cell-based, human
CNS cancer cell SF-268 = experiment: Preliminary cytotoxicity test; type: cell-based, human
K-562 cells = experiment: Cell cycle distribution by flow cytometry; type: cell-based, human; conditions: K-562, 72 hrs
Procedure: Samples of 1×10^6 Hep G2 cells were plated on a 6 cm tissue culture dish, and the cells were allowed to recover 24 hrs before any treatment. Thereafter, DMSO or a test compound (1 μM, 10 μM or 50 μM) was added to the cells for 1 hr in complete medium at 37° C., washed twice with PBS, and incubated in fresh media for the incubation time. Cell were harvested with trypsin and washed twice with PBS. Samples were fixed in 70% ethanol and stored at 4° C. for at least 24 hrs and then washed once with McIlvaine's buffer (0.2M Na2HPO4, 0.1M citric acid, pH=7.5) and once again with PBS. Samples were stained with PI (propidium iodide) staining solution (PBS containing 100 μg/ml, RNase A and 10 μg/ml PI [Sigma]), processed on a Coulter Elite flow cytometry, and the data analyzed with the Mutiplus AV program.

Leukemia cell lines = experiment: NCI panel, average of cell lines; conditions: Homo sapiens, read-out: cytotoxicity GI50, average value of all the cancer cell lines
[3] = test system: Non-Small Cell Lung Cancer cell lines; experiment: NCI panel, average of cell lines; conditions: Homo sapiens, read-out: cytotoxicity GI50, average value of all the cancer cell lines
Colon Cancer cell lines = experiment: NCI panel, average of cell lines; conditions: Homo sapiens, read-out: cytotoxicity GI50, average value of all the cancer cell lines
CNS Cancer cell lines = experiment: NCI panel, average of cell lines; conditions: Homo sapiens, read-out: cytotoxicity GI50, average value of all the cancer cell lines
Melanoma cell lines = experiment: NCI panel, average of cell lines; conditions: Homo sapiens, read-out: cytotoxicity GI50, average value of all the cancer cell lines
[4] = test system: Ovarian Cancer cell lines; experiment: NCI panel, average of cell lines; conditions: Homo sapiens, read-out: cytotoxicity GI50, average value of all the cancer cell lines
Renal Cancer cell lines = experiment: NCI panel, average of cell lines; conditions: Homo sapiens, read-out: cytotoxicity GI50, average value of all the cancer cell lines
[5] = test system: Prostate Cancer cell lines; experiment: NCI panel, average of cell lines; conditions: Homo sapiens, read-out: cytotoxicity GI50, average value of all the cancer cell lines
Breast Cancer cell lines = experiment: NCI panel, average of cell lines; conditions: Homo sapiens, read-out: cytotoxicity GI50, average value of all the cancer cell lines
topoisomerase I = biological target: T1, topoisomerase I (Homo sapiens, UniProt P11387); experiment: Topoisomerase I assay, cleavage of supercoiled pGEM9zf(−) DNA, gel electrophoresis; type: biochemical; conditions: for topo I inhibitor, overall conclusion: from FIGS. 1 and 2
T1 sequence (P11387 1-765): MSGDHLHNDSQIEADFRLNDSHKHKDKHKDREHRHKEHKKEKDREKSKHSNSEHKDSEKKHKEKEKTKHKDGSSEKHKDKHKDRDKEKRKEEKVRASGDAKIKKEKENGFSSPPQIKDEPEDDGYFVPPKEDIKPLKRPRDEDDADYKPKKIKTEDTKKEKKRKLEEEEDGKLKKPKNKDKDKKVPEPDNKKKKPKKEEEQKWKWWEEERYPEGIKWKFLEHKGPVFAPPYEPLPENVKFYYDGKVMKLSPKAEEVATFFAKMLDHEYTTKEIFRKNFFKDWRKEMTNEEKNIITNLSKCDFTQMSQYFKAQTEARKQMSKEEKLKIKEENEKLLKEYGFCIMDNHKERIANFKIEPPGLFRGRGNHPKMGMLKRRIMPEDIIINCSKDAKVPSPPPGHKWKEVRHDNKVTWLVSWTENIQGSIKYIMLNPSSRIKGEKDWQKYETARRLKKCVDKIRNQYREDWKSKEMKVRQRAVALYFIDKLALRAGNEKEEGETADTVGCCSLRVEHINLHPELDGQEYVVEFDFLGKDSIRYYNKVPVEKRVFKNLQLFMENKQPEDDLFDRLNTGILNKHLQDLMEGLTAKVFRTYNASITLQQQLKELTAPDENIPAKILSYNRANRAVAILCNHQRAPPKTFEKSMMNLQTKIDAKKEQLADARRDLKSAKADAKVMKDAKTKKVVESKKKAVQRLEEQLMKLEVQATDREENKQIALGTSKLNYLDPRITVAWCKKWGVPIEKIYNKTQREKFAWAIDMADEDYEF

[6] = test system: KB: human oral epidermoid carcinoma; experiment: In vitro anticancer assay (cytotoxicity), solid tumor cells
[7] = test system: Hela: human cervix epitheloid carcinoma; experiment: as above
KB cell = conditions: Table 1; cited from earlier work
[8] = test system: KB: human oral epidermoid carcinoma
[9] = test system: Hela: human cervix epitheloid carcinoma
[10] = test system: DLD (DLD-1): human colon adenocarcinoma

CCCCCCC#C/C=C\C#Cc1ccccc1C(=O)O [Compound 22, 2-(3-(Z)-Dodecen-1,5-diynyl)benzoate]
IC50 Values of Cytotoxicities [1]: — (“—” means IC50 > 20 μg/ml)

N#Cc1ccccc1C#C/C=C\C#CCOC1CCCCO1 (centres unmarked) [Compound 1, 2-(7-(Tetrahydropyranyloxy)-3(Z)-hepten-1,5-diynyl)-benzonitrile]
IC50 (Hep2,2,15): > 10 µM | IC50 Values of Cytotoxicities [1]: —* (“—” means IC50 > 20 μg/ml)

N#Cc1ccccc1C#CC=CC#Cc1ccccc1N [Compound 32, 2-[6-(o-anilinyl)-3-hexen-1,5-diynyl]benzonitrile]
Growth percentage (Breast cancer cell MCF-7): 36% | Growth percentage [2]: 8* % | Growth percentage (CNS cancer cell SF-268): 27* % | accumulation of G2/M stage cells (K-562 cells): an accumulation of G2/M stage cells | GI50 (Leukemia cell lines): 0.43 µM | GI50 [3]: 1.7 µM | GI50 (Colon Cancer cell lines): 0.47 µM | GI50 (CNS Cancer cell lines): 9.44 µM | GI50 (Melanoma cell lines): 0.77 µM | GI50 [4]: 1.55 µM | GI50 (Renal Cancer cell lines): 0.66 µM | GI50 [5]: 3.13 µM | GI50 (Breast Cancer cell lines): 2 µM

COc1ccc(C#CC=CC#Cc2ccccc2C#N)cc1 [Compound 25]
Growth percentage (Breast cancer cell MCF-7): 90% | Growth percentage [2]: 48% | Growth percentage (CNS cancer cell SF-268): 91%

N#Cc1ccccc1C#Cc1ccccc1C#CCCCOC1CCCCO1 (centres unmarked) [Compound 8]
inhibition of topo I (topoisomerase I; 0.87 μM compound): untwisting DNA was revealed | inhibition of topo I (topoisomerase I; 8.7 μM compound): no Topo I inhibition; also recorded: untwisting DNA was revealed | inhibition of topo I (topoisomerase I; 87 μM compound): no Topo I inhibition; also recorded: untwisting DNA was revealed | IC50 Values of Cytotoxicities [1]: — (“—” means IC50 > 20 μg/ml)

N#Cc1ccccc1C#CC=CC#Cc1ccccn1 [Compound 27, 2-(6-(2-pyridinyl)-3-hexen-1,5-diynyl)benzonitrile]
Growth percentage (Breast cancer cell MCF-7): 49% | Growth percentage [2]: 23* % | Growth percentage (CNS cancer cell SF-268): 83% | accumulation of G2/M stage cells (K-562 cells): an accumulation of G2/M stage cells | GI50 (Leukemia cell lines): 12.8 µM | GI50 [3]: 19.6 µM | GI50 (CNS Cancer cell lines): 20.9 µM | GI50 (Melanoma cell lines): 14.2 µM | GI50 [4]: 27.3 µM | GI50 (Renal Cancer cell lines): 21.7 µM | GI50 [5]: 21.2 µM | GI50 (Breast Cancer cell lines): 14.3 µM

CC[C@@]1(O)C(=O)OCc2c1cc1n(c2=O)Cc2cc3ccccc3nc2-1 [camptothecin, reference compound]
inhibition of topo I (topoisomerase I): less topo I inhibitory activity; also recorded: observable inhibition of topo I

CCCCCCC#C/C=C\C#Cc1ccc([N+](=O)[O-])cc1 [Compound 21, 4-nitro-1-(3-(Z)-dodecen-1,5-diynyl)benzene]
IC50 ([6]; Homo sapiens, read-out: IC50 Values of Cytotoxicities): > 20 mg/L

N#Cc1ccccc1C#CC=CC#Cc1ccc(N)cc1 [Compound 33, 2-[6-(p-anilinyl)-3-hexen-1,5-diynyl]benzonitrile]
Growth percentage (Breast cancer cell MCF-7): 100% | Growth percentage [2]: 94% | Growth percentage (CNS cancer cell SF-268): 92%

N#Cc1ccccc1C#Cc1ccccc1C#CCOC1CCCCO1 (centres unmarked) [Compound 7, 2-(2-(3-Tetrahydro-pyranyl-5-oxy-1-propynylphenyl)ethynyl)benzonitrile]
inhibition of topo I (topoisomerase I; 0.87 μM compound): untwisting DNA was revealed | inhibition of topo I (topoisomerase I; 8.7 μM compound): no Topo I inhibition; also recorded: untwisting DNA was revealed | inhibition of topo I (topoisomerase I; 87 μM compound): no Topo I inhibition; also recorded: untwisting DNA was revealed | IC50 Values of Cytotoxicities [1]: — (“—” means IC50 > 20 μg/ml)

CCCCCCC#C/C=C\C#Cc1ccc(C#C/C=C\C#CCCCCCC)cc1 [Compound 11, 1,4-Bis-(3-(Z)-Dodecen-1,5-diynyl)benzene]
topo I inhibitor, overall conclusion (topoisomerase I): not topo I inhibitors

CCCCCC#Cc1ccccc1C#Cc1ccccc1C#N [Compound 10, 2-(2-(2-Heptynylphenyl)ethynyl)benzonitrile]
IC50 Values of Cytotoxicities [6]: — (“—” means IC50 > 20 μg/ml) | IC50 Values of Cytotoxicities [7]: — (“—” means IC50 > 20 μg/ml)

CCCCC#C/C=C\C#Cc1ccccc1C#N [Compound 3, 2-(3(Z)-Decen-1,5-diynyl)benzonitrile]
IC50 (KB cell): < 0.01 µM

CCCCC#C/C=C\C#Cc1ccc(Cl)cc1 [Compound 13]
IC50 Values of Cytotoxicities [8]: — (key: “—” means IC50 > 20 μg/ml) | IC50 Values of Cytotoxicities (Hepa: human hepatoma): — (key: “—” means IC50 > 20 μg/ml)

CCCCCCC#C/C=C\C#Cc1ccc(C(F)(F)F)cc1 [Compound 18, 4-(3-(Z)-Dodecen-1,5-diynyl)trifluoromethylbenzene]
topo I inhibitor, overall conclusion (topoisomerase I): displayed topo I inhibitory activities

CCCCCCC#C/C=C\C#Cc1cccc(C(F)(F)F)c1 [Compound 19, 3-(3-(Z)-Dodecen-1,5-diynyl)trifluoromethylbenzene]
IC50 Values of Cytotoxicities [7]: — (“—” means IC50 > 20 μg/ml)

2-(6-(2-xylenyl)-3-hexen-1,5-diyne)benzonitrile [Compound 24]
Growth percentage (Breast cancer cell MCF-7): 101% | Growth percentage [2]: 129% | Growth percentage (CNS cancer cell SF-268): 111%

N#Cc1ccccc1C#CC=CC#Cc1cccs1 [Compound 29, 2-(6-(2-thienyl)-3-hexen-1,5-diynyl)benzonitrile]
Growth percentage (Breast cancer cell MCF-7): 49% | Growth percentage [2]: 34% | Growth percentage (CNS cancer cell SF-268): 96%

CCCCCCC#C/C=C\C#Cc1ccc(C(C)=O)cc1 [Compound 23, 4-(3-(Z)-Dodecen-1,5-diynyl)acetophenone]
topo I inhibitor, overall conclusion (topoisomerase I): displayed topo I inhibitory activities | IC50 Values of Cytotoxicities [9]: — (key: “—” means IC50 > 20 μg/ml) | IC50 Values of Cytotoxicities [10]: — (key: “—” means IC50 > 20 μg/ml) | IC50 Values of Cytotoxicities (Hepa: human hepatoma): — (key: “—” means IC50 > 20 μg/ml)

CCCCCCC#C/C=C\C#Cc1ccc(-c2ccc(C#C/C=C\C#CCCCCCC)cc2)cc1 [Compound 12, 4,4′-Bis-(3-(Z)-Dodecen-1,5-diynyl)biphenyl]
topo I inhibitor, overall conclusion (topoisomerase I): not topo I inhibitors

N#Cc1ccccc1C#CC=CC#Cc1cnccn1 [Compound 30, 2-(6-(2-pyrazinyl)-3-hexen-1,5-diynyl)benzonitrile]
Growth percentage (Breast cancer cell MCF-7): 73% | Growth percentage [2]: 8* % | Growth percentage (CNS cancer cell SF-268): 84% | accumulation of G2/M stage cells (K-562 cells): an accumulation of G2/M stage cells | GI50 (Leukemia cell lines): 5.05 µM | GI50 [3]: 11.8 µM | GI50 (Colon Cancer cell lines): 7.54 µM | GI50 (CNS Cancer cell lines): 32.2 µM | GI50 (Melanoma cell lines): 18.7 µM | GI50 [4]: 38.1 µM | GI50 (Renal Cancer cell lines): 27 µM | GI50 [5]: 33.6 µM | GI50 (Breast Cancer cell lines): 33.3 µM

CCCCCC#C/C=C\C#Cc1ccccc1C#N [Compound 4, 2-(3(Z)-Undecen-1,5-diynyl)benzonitrile]
IC50 (KB cell): < 0.01 µM | IC50 (Hep2,2,15): > 10 µM

CCCCC#Cc1ccccc1C#Cc1ccccc1C#N [Compound 9, 2-(2-(2-Hexynylphenyl)ethynyl)benzonitrile]
IC50 Values of Cytotoxicities [1]: — (“—” means IC50 > 20 μg/ml)

FC(F)(F)c1ccc(C#Cc2ccccc2C#Cc2ccc(C(F)(F)F)cc2)cc1 [Compound 42]
Growth percentage (Breast cancer cell MCF-7): 37% | Growth percentage [2]: 78% | Growth percentage (CNS cancer cell SF-268): 55%

CCCCC#C/C=C\C#Cc1ccccc1 [Compound 6, (3Z)-Decen-1,5-diynylbenzene]
topo I inhibitor, overall conclusion (topoisomerase I): not Topo I inhibitors

Cc1ccc(C#CC=CC#Cc2ccccc2C#N)cc1 [Compound 28, 2-(6-(4-tolyl)-3-hexen-1,5-diynyl)benzonitrile]
Growth percentage (Breast cancer cell MCF-7): 80% | Growth percentage [2]: 96% | Growth percentage (CNS cancer cell SF-268): 105%

2-(6-(2-thioanisyl)-3-hexen-1,5-diynyl)benzonitrile [Compound 31]
Growth percentage (Breast cancer cell MCF-7): 62% | Growth percentage [2]: 100% | Growth percentage (CNS cancer cell SF-268): 164%
